Laboratory results from US20090176817A1, “Method of Treatment of Diarrhea-Predominant Irritable Bowel Syndrome in a Subject” (priority 2005, published 2009).

What was measured:
human 5-HT3 receptor = target: T1, human 5-HT3 receptor (Homo sapiens, UniProt P46098); test: 5-HT3 receptor binding
T1 sequence (P46098 24-478): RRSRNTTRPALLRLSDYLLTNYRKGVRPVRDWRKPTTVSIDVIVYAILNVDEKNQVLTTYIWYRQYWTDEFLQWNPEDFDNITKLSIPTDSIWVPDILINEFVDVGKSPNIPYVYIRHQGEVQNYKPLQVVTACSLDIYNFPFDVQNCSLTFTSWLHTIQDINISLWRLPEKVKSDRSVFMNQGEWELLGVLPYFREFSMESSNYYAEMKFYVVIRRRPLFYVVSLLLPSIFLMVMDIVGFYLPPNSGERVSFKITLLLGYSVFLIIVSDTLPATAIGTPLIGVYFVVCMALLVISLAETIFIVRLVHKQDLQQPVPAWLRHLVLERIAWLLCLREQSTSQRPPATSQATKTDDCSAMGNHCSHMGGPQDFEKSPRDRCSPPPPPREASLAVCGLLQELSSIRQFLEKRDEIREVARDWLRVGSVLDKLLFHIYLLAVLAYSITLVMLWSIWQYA

[1] = Study S.241.2.112: population pharmacokinetics (NONMEM) in IBS patients; type: in vivo, human; conditions: for CL/F / T½ / predicted steady-state AUC(0-τ) / predicted steady-state Cmax: IBS patients; for CL/F / T½: Bayesian estimates, population PK model, arith. mean; for predicted steady-state AUC(0-τ) / predicted steady-state Cmax: covariate population PK model, mean (SD); for Increase of apparent oral clearance per 1 mL/min creatinine clearance: population model
Experimental: The pharmacokinetics and pharmacodynamics of cilansetron following multiple oral administration in non-constipated IBS patients have been examined in a population pharmacokinetic (NONMEM) analysis of a Phase II trial. The study was a double-blind, placebo-controlled, randomized, multi-center, parallel-group, dose ranging study to investigate the Efficacy and safety of four different doses of cilansetron (1 mg, 2 mg, 8 mg, and 16 mg TID) in patients with established IBS (non-constipated patients who suffered from IBS according to the Rome Criteria and were not bothered by constipation for >25% of their IBS episodes). The study was to be performed in approximately 50 centers. A sufficient number of patients were to be recruited to insure that at least 88 patients per treatment group were evaluable for efficacy and to get a total of 440 completers. […] There were interim assessments at the end of the 4th week (Visit 3; Day 29) and 8th week (Visit 4; Day 57) and a final assessment at the end of the 12th week (Visit 5; poststudy). Single blood samples for population pharmacokinetic analyses were drawn at Visits 3, 4, 5 or early termination, at 31 of the participating sites. With the exception of Visit 3, the timing of the blood draw in relation to the previous dose was not specified for any of the samples collected, but the time of sampling and the time of last dosing was recorded for each sample collected. For Visit 3, the blood sample had to be taken between 15 minutes and 2 hours of the morning or midday dose.
Various covariates were screened during development of the population pharmacokinetic model, including age, height, weight, body surface area, body mass index, race, gender, smoking status, serum creatinine levels, serum creatinine clearance, total bilirubin levels, cilansetron dose, and concomitant medication usage. Some efficacy and safety parameters were also evaluated in this population analysis using correlation analyses. Efficacy parameters evaluated included overall relief of IBS symptoms (Responder or Non-Responder), intensity of abdominal pain, number of stools and stool consistency, symptoms of abdominal and rectal discomfort (straining, urgency, feeling of incomplete defecation, passage of mucus, bloating, and feeling of abdominal distension), and upper GI symptoms at Visit 5 (vomiting, heartburn, early satiety, postprandial fullness, sensation of prolonged digestion, and nausea). Safety parameters evaluated included the top ten most frequently observed adverse events (constipation, flatulence, nausea, abdominal pain, headache, dyspepsia, infection, gastrointestinal disorders, anorexia, and diarrhea).
The population analysis included data from 160 patients (63 males and 97 females) with a median age of 45.5 years (range: 20-81 years), median weight of 78 kg (range: 47-121 kg), and median height of 170 cm (range: 147-196 cm). More than 90% of the patients were White and 18.8% of the patients were considered smokers. […] A total of 392 quantifiable concentrations for cilansetron, 393 quantifiable concentrations for (4S)-hydroxy cilansetron, and 397 quantifiable concentrations for (4R)-hydroxy cilansetron from 160 patients were included in the NONMEM datasets for population analyses.
FIG. 54, FIG. 55, and FIG. 56 present mean steady-state plasma concentration-time profiles for cilansetron and its 4-hydroxy metabolites, and Table 2.7.2.3.29 and Table 2.7.2.3.30 present descriptive statistics for the estimated pharmacokinetic parameters of cilansetron and its 4-hydroxy metabolites from the final covariate population pharmacokinetic model. The cilansetron concentration data were best described by a one-compartment model with first-order input, an absorption lag time, and first-order elimination. A log-normal distribution was used to describe the variability of clearance, volume of distribution and absorption rate constant between patients. The residual error was best described by an exponential model. […]

[2] = Study S241.1.111: relative bioavailability and food effect, 2 mg tablet vs oral solution; type: in vivo, human; conditions: for Tmax: median
Experimental: Subjects were randomized to receive a cilansetron 2 mg tablet after an overnight fast, a cilansetron 2 mg tablet after a high-fat breakfast, and a cilansetron 2 mg oral solution after an overnight fast during the three treatment periods, with a 7-day washout between periods. Serial blood sampling was performed up to 24 hours following each treatment, and plasma pharmacokinetics parameters for cilansetron and its metabolites, (4R)-hydroxy cilansetron and (4S)-hydroxy cilansetron, were estimated. FIG. 4, FIG. 5, and FIG. 6 present mean plasma concentration-time profiles for cilansetron and its metabolites following treatment with the cilansetron tablet and oral solution. Table 2.7.1.2.2 presents descriptive statistics for the pharmacokinetic parameters of cilansetron and its metabolites for the tablet and oral solution, and the results of statistical comparisons between treatments (tablet versus solution).
Subjects were randomized to receive a cilansetron 2 mg tablet after an overnight fast, a cilansetron 2 mg tablet after a high-fat breakfast, and a cilansetron 2 mg oral solution after an overnight fast during the three treatment periods, with a 7-day washout between periods. Serial blood sampling was performed up to 24 hours following each treatment and plasma pharmacokinetics parameters for cilansetron and its metabolites, (4R)-hydroxy cilansetron and (4S)-hydroxy cilansetron, were estimated. FIG. 7, FIG. 8, and FIG. 9 present mean plasma concentration-time profiles for cilansetron and its metabolites following treatment with the cilansetron tablet under fasted conditions and following a high-fat meal. Table 2.7.1.2.4 presents descriptive statistics for the pharmacokinetic parameters of cilansetron and its metabolites for the tablet under fed and fasted conditions, and the results of statistical comparisons between treatments (fed versus fasted).

[3] = 2 mg tablet, fasted, single dose
[4] = 2 mg tablet, fed (high-fat breakfast)

Work on `Cc1nccn1CC1CCc2c(c3cccc4c3n2CC[C@H]4O)C1=O` (stereo partly drawn) [(4R)-hydroxy cilansetron] yielded a pKi (human 5-HT3 receptor) of 8.5, a CL/F ([1]; cilansetron 1 mg TID) of 234 L/h and a T½ ([1]; cilansetron 1 mg TID) of 9.55 h. For the same compound, the “predicted steady-state AUC(0-τ)” value ([1]; cilansetron 1 mg TID) was 6.42 (1.40) ng · h/mL, the “predicted steady-state Cmax” value ([1]; cilansetron 1 mg TID) was 1.05 (0.19) ng/mL and the CL/F ([1]; cilansetron 2 mg TID) was 232 L/h. The T½ ([1]; cilansetron 2 mg TID) was 9.56 h, the “predicted steady-state AUC(0-τ)” value ([1]; cilansetron 2 mg TID) was 13.0 (2.64) ng · h/mL and the “predicted steady-state Cmax” value ([1]; cilansetron 2 mg TID) was 2.17 (0.37) ng/mL. For the same compound, the CL/F ([1]; cilansetron 8 mg TID) was 229 L/h, the T½ ([1]; cilansetron 8 mg TID) was 9.79 h and the “predicted steady-state AUC(0-τ)” value ([1]; cilansetron 8 mg TID) was 53.0 (10.1) ng · h/mL. The “predicted steady-state Cmax” value ([1]; cilansetron 8 mg TID) was 8.56 (1.70) ng/mL, the CL/F ([1]; cilansetron 16 mg TID) was 232 L/h and the T½ ([1]; cilansetron 16 mg TID) was 9.80 h. For the same compound, the “predicted steady-state AUC(0-τ)” value ([1]; cilansetron 16 mg TID) was 98.6 (18.8) ng · h/mL, the “predicted steady-state Cmax” value ([1]; cilansetron 16 mg TID) was 16.7 (3.0) ng/mL and the “Increase of apparent oral clearance per 1 mL/min creatinine clearance” value [1] was 0.447 L/h. For the same compound, the “AUC(0-inf)” value ([2]; 2 mg oral solution, fasted) was 14.3 (26) ng · h/mL, the “AUC(0-last)” value ([2]; 2 mg oral solution, fasted) was 13.5 (27) ng · h/mL and the Cmax ([2]; 2 mg oral solution, fasted) was 2.82 (26) ng/mL. For the same compound, the T½ ([2]; 2 mg oral solution, fasted) was 3.90 (19) h, the Tmax ([2]; 2 mg oral solution, fasted) was 1.00 h and the “AUC(0-inf)” value [2, 3] was 14.4 (25) ng · h/mL. For the same compound, the “AUC(0-last)” value [2, 3] was 13.7 (26) ng · h/mL, the Cmax [2, 3] was 2.87 (20) ng/mL and the T½ [2, 3] was 3.90 (22) h. The Tmax ([2]; 2 mg tablet, fasted) was 1.25 h, the “AUC(0-inf)” value ([2]; 2 mg tablet, fed) was 13.6 (26) ng · h/mL and the Cmax ([2]; 2 mg tablet, fed) was 2.23 (26) ng/mL. The T½ ([2]; 2 mg tablet, fed) was 4.46 (31) h, the “AUC(0-last)” value [2, 4] was 12.8 (27) ng · h/mL and the Tmax ([2]; 2 mg tablet, fed) was 1.75 h.
`Cc1nccn1CC1CCc2c(c3cccc4c3n2CC[C@@H]4O)C1=O` (stereo partly drawn) [(4S)-hydroxy cilansetron] showed a pKi (human 5-HT3 receptor) of 8.0, a CL/F ([1]; cilansetron 1 mg TID) of 140 L/h and a T½ ([1]; cilansetron 1 mg TID) of 5.42 h. For the same compound, the “predicted steady-state AUC(0-τ)” value ([1]; cilansetron 1 mg TID) was 3.85 (0.92) ng · h/mL, the “predicted steady-state Cmax” value ([1]; cilansetron 1 mg TID) was 0.546 (0.105) ng/mL and the CL/F ([1]; cilansetron 2 mg TID) was 136 L/h. For the same compound, the T½ ([1]; cilansetron 2 mg TID) was 5.55 h, the “predicted steady-state AUC(0-τ)” value ([1]; cilansetron 2 mg TID) was 7.68 (1.59) ng · h/mL and the “predicted steady-state Cmax” value ([1]; cilansetron 2 mg TID) was 1.10 (0.20) ng/mL. For the same compound, the CL/F ([1]; cilansetron 8 mg TID) was 134 L/h, the T½ ([1]; cilansetron 8 mg TID) was 5.64 h and the “predicted steady-state AUC(0-τ)” value ([1]; cilansetron 8 mg TID) was 31.6 (7.68) ng · h/mL. For the same compound, the “predicted steady-state Cmax” value ([1]; cilansetron 8 mg TID) was 4.46 (1.04) ng/mL, the CL/F ([1]; cilansetron 16 mg TID) was 142 L/h and the T½ ([1]; cilansetron 16 mg TID) was 5.31 h. The “predicted steady-state AUC(0-τ)” value ([1]; cilansetron 16 mg TID) was 63.2 (16.5) ng · h/mL, the “predicted steady-state Cmax” value ([1]; cilansetron 16 mg TID) was 9.03 (2.03) ng/mL and the “Increase of apparent oral clearance per 1 mL/min creatinine clearance” value [1] was 0.883 L/h. The “AUC(0-inf)” value ([2]; 2 mg oral solution, fasted) was 7.20 (23) ng · h/mL, the “AUC(0-last)” value ([2]; 2 mg oral solution, fasted) was 5.82 (24) ng · h/mL and the Cmax ([2]; 2 mg oral solution, fasted) was 0.607 (19) ng/mL. The T½ ([2]; 2 mg oral solution, fasted) was 7.13 (25) h, the Tmax ([2]; 2 mg oral solution, fasted) was 3.00 h and the “AUC(0-inf)” value [2, 3] was 7.31 (22) ng · h/mL. For the same compound, the “AUC(0-last)” value [2, 3] was 5.98 (22) ng · h/mL, the Cmax [2, 3] was 0.637 (17) ng/mL and the T½ [2, 3] was 7.26 (32) h. For the same compound, the Tmax ([2]; 2 mg tablet, fasted) was 3.00 h, the “AUC(0-inf)” value ([2]; 2 mg tablet, fed) was 7.54 (19) ng · h/mL and the Cmax ([2]; 2 mg tablet, fed) was 0.602 (17) ng/mL. For the same compound, the T½ ([2]; 2 mg tablet, fed) was 7.94 (34) h, the “AUC(0-last)” value [2, 4] was 6.10 (19) ng · h/mL and the Tmax ([2]; 2 mg tablet, fed) was 4.00 h.
